According to patent publication US9889146B2, “Benzoxaborole compounds and uses thereof” (priority 2012, dated 2018):
≈ marks a conversion by molar mass, not a printed value. Where two headings read alike, the source gives them in different places.

Key:
Assay type in all cases: cell-based
E. coli ATCC 25922 = assay: Spontaneous frequency of resistance; conditions: 24 h
Protocol: (§1) Spontaneous Resistance Frequency was determined in vitro for GSK2251052 and the resistance mutants in E. coli ATCC 25922, K. pneumoniae ATCC 13883, and P. aeruginosa ATCC 27853 strains were characterized. GSK2251052 was prepared as described in U.S. Pat. No. 7,816,344 (the entire contents of which are hereby incorporated by reference herein). LB broth, Mueller Hinton II broth (adjusted), and Difco noble agar were obtained from Becton Dickinson (Cockeysville, Md., USA). M9 minimal broth containing 1×M9 salt, 0.5 μg/ML thiamine, 1 mM MgSO4, 0.1 mM CaCl2, 2% glucose, was obtained from Teknova (Hollister, Calif., USA). Antibacterial agents ciprofloxacin, ceftazidime, chloramphenicol, gentamycin, kanamycin, polymixin B, tobramycin and trimethoprim, and amino acids were obtained from Sigma Chemicals (St. Louis, Mo., USA). Strains were obtained from ATCC (Manassas, Va., USA).
(§2) Selection of resistance to GSK2251052 was attempted by spreading various amounts of bacteria onto MHBII noble agar plates containing 4×MIC (minimum inhibitory concentration) or 10×MIC of GSK2251052. Colonies were counted after 24 hours and 48 hours incubation at 37° C. The resistance of these colonies was confirmed by their ability to grow on plates containing GSK2251052 at either 4× or 10×MIC. Frequency of resistance was determined by dividing the number of resistant mutants by the total number of cells plated as determined by plating dilutions of the overnight culture on LB plates.

K. pneumoniae ATCC 13883 = assay: Spontaneous frequency of resistance; conditions: 24 h
Protocol: as §1, §2

P. aeruginosa ATCC 27853 = assay: Spontaneous frequency of resistance; conditions: 24 h
Protocol: as §1, §2

[1] = tested on: E. coli ATCC 25922, K. pneumoniae ATCC 13883 and P. aeruginosa ATCC 27853; assay: MIC, three strains and their mutants summarised; conditions: MIC in E. coli, P. aeruginosa and K. pneumoniae mutants versus wild-type
Protocol: as §1
(§3) Susceptibility tests were performed following the recommendations for aerobic bacteria (M7-A7) from the Clinical and Laboratories Standards Institute (CLSI).
(§4) Laboratory generated mutants resistant to GSK2251052 contain mutations in the editing domain of LeuRS. Six to ten GSK2251052 resistant colonies of E. coli ATCC 25922, K. pneumoniae ATCC 13883 and P. aeruginosa ATCC 27853 were selected for further analysis and their MICs to GSK2251052 were determined (Table 4-7).
GSK2251052 resistant mutants were not cross-resistant to commercial antibiotics.

[2] = tested on: E. coli ATCC 25922 wild type and mutants; assay: MIC, wild type and GSK2251052 resistant mutants; conditions: Escherichia coli
Protocol: as §1, §3, §4

[3] = tested on: P. aeruginosa ATCC 27853 wild type and mutants; assay: MIC, wild type and GSK2251052 resistant mutants; conditions: Pseudomonas aeruginosa
Protocol: as §1, §3, §4

[4] = tested on: K. pneumoniae ATCC 13883 wild type and mutants; assay: MIC, wild type and GSK2251052 resistant mutants; conditions: Klebsiella pneumoniae
Protocol: as §1, §3, §4

[5] = tested on: Enterobacter cloacae (AmpC); assay: microbe, parasite or virus in culture; conditions: Enterobacter cloacae
[6] = tested on: Citrobacter freundii (AmpC); assay: microbe, parasite or virus in culture; conditions: Citrobacter freundii
Providencia spp.(all) = assay: microbe, parasite or virus in culture; conditions: Providencia spp.(all), 68 isolates; read-out: MIC90
S. marcescens (AmpC) = assay: microbe, parasite or virus in culture; conditions: Serratia marcescens
E. coli (WT) = assay: microbe, parasite or virus in culture; conditions: Escherichia coli; E. coli (WT), 214 isolates; read-out: MIC90
[7] = tested on: Enterobacter aerogenes (WT); assay: microbe, parasite or virus in culture; conditions: Klebsiella aerogenes; Enterobacter aerogenes (WT), 199 isolates; read-out: MIC90
Klebsiella spp. (WT) = assay: microbe, parasite or virus in culture; conditions: Klebsiella spp. (WT), 159 isolates; read-out: MIC90
[8] = tested on: Enterobacter aerogenes (AmpC); assay: microbe, parasite or virus in culture; conditions: Klebsiella aerogenes
Klebsiella spp. (ESBL) = assay: microbe, parasite or virus in culture; conditions: Klebsiella
Enterobacteriaceae = assay: organism not typed; conditions: Enterobacteriaceae, 2029 isolates; read-out: MIC90
Klebsiella spp. (KPC) = assay: microbe, parasite or virus in culture; conditions: Klebsiella
[9] = tested on: Enterobacter cloacae (WT); assay: microbe, parasite or virus in culture; conditions: 202 isolates, read-out: MIC90
Proteus mirabilis (WT) = assay: microbe, parasite or virus in culture; conditions: Proteus mirabilis (WT), 235 isolates; read-out: MIC90
E. coli (ESBL) = assay: microbe, parasite or virus in culture; conditions: Escherichia coli
[10] = tested on: Morganella morganii (AmpC); assay: microbe, parasite or virus in culture; conditions: Morganella morganii
Proteus vulgaris (WT) = assay: microbe, parasite or virus in culture; conditions: Proteus vulgaris (WT), 41 isolates; read-out: MIC90
P. aeruginosa = assay: In vitro activity against P. aeruginosa clinical isolates; conditions: P. aeruginosa, 2,008 clinical isolates; GSK2251052 based on potential susceptible breakpoint of ≦4 μg/mL
Protocol: GSK2251052 was tested for activity against P. aeruginosa, and its activity was compared to other antibiotics of known activity. The results are shown below in Tables 2a and 2b. Of 2,008 clinical isolates tested (from 2009-2010 subjects, of which 40% were from North America) greater than 90% were susceptible to GSK2251052 based on a potential susceptible breakpoint of ≦4 μg/mL.

[11] = ATCC25922, E wt, read-out: MICs
[12] = ATCC25922, read-out: MICs, mutant E 101
[13] = ATCC25922, read-out: MICs, mutant E 102
[14] = ATCC25922, read-out: MICs, mutant E 107
[15] = ATCC27853, P wt., read-out: MICs
[16] = ATCC27853, read-out: MICs, mutant P 101
[17] = ATCC27853, read-out: MICs, mutant P106
[18] = ATCC27853, read-out: MICs, mutant P108
[19] = ATCC13883, K wt., read-out: MICs
[20] = ATCC13883, read-out: MICs, mutant K 104
[21] = ATCC13883, read-out: MICs, mutant K 105
[22] = ATCC13883, read-out: MICs, mutant K 107
[23] = ATCC13883, read-out: MICs, mutant K 108
[24] = ATCC13883, read-out: MICs, mutant K 110

Structure (SMILES) | Frequency of Resistance (E. coli ATCC 25922; 4 X MIC) | Frequency of Resistance (E. coli ATCC 25922; 10 X MIC) | Frequency of Resistance (K. pneumoniae ATCC 13883; 4 X MIC) | Frequency of Resistance (K. pneumoniae ATCC 13883; 10 X MIC) | Frequency of Resistance (P. aeruginosa ATCC 27853; 4 X MIC) | cross-resistance of GSK2251052 resistant mutants [1] | MIC [2, 11] | MIC [2, 12] | MIC [2, 13] | MIC [2, 14] | MIC [3, 15] | MIC [3, 16] | MIC [3, 17] | MIC [3, 18] | MIC [4, 19] | MIC [4, 20] | MIC [4, 21] | MIC [4, 22] | MIC [4, 23] | MIC [4, 24] | also measured
NC[C@H]1O[C@H](O[C@H]2[C@H](O)[C@@H](O[C@H]3O[C@H](CO)[C@@H](O)[C@H](N)[C@H]3O)[C@H](N)C[C@@H]2N)[C@H](N)C[C@@H]1O [Tobramycin] | 1 × 10^−5 | 4 × 10^−6 | 1 × 10^−6 | 5 × 10^−8 | 1 × 10^−6 | did not have any significant difference in MIC values than wild-type | 1 µg/mL (≈ 2.14 µM) | 1 µg/mL (≈ 2.14 µM) | 2 µg/mL (≈ 4.28 µM) | 1 µg/mL (≈ 2.14 µM) | 0.5 µg/mL (≈ 1.07 µM) | 0.5 µg/mL (≈ 1.07 µM) | 0.5 µg/mL (≈ 1.07 µM) | 0.5 µg/mL (≈ 1.07 µM) | 0.5 µg/mL (≈ 1.07 µM) | 0.5 µg/mL (≈ 1.07 µM) | 0.5 µg/mL (≈ 1.07 µM) | 0.5 µg/mL (≈ 1.07 µM) | 0.5 µg/mL (≈ 1.07 µM) | 0.5 µg/mL (≈ 1.07 µM) | Frequency of Resistance (P. aeruginosa ATCC 27853; 10 X MIC): 9 × 10^−8
COc1cc(Cc2cnc(N)nc2N)cc(OC)c1OC [Trimethoprim] |  |  |  |  |  | did not have any significant difference in MIC values than wild-type | 0.5 µg/mL (≈ 1.72 µM) | 1 µg/mL (≈ 3.44 µM) | 0.5 µg/mL (≈ 1.72 µM) | 1 µg/mL (≈ 3.44 µM) | > 64 µg/mL | > 64 µg/mL | > 64 µg/mL | > 64 µg/mL | 1 µg/mL (≈ 3.44 µM) | 1 µg/mL (≈ 3.44 µM) | 1 µg/mL (≈ 3.44 µM) | 1 µg/mL (≈ 3.44 µM) | 1 µg/mL (≈ 3.44 µM) | 1 µg/mL (≈ 3.44 µM) | 
O=C(N[C@H](CO)[C@H](O)c1ccc([N+](=O)[O-])cc1)C(Cl)Cl [Chloramphenicol] |  |  |  |  |  | did not have any significant difference in MIC values than wild-type | 8 µg/mL (≈ 24.8 µM) | 8 µg/mL (≈ 24.8 µM) | 8 µg/mL (≈ 24.8 µM) | 8 µg/mL (≈ 24.8 µM) | > 64 µg/mL | > 64 µg/mL | > 64 µg/mL | > 64 µg/mL | 4 µg/mL (≈ 12.4 µM) | 8 µg/mL (≈ 24.8 µM) | 8 µg/mL (≈ 24.8 µM) | 8 µg/mL (≈ 24.8 µM) | 8 µg/mL (≈ 24.8 µM) | 8 µg/mL (≈ 24.8 µM) | 
C[C@H]1COc2c(N3CCN(C)CC3)c(F)cc3c(=O)c(C(=O)O)cn1c23 [Levofloxacin] | 2 × 10^−8 | <5 × 10^−9 | 2 × 10^−7 | <3 × 10^−9 | 1 × 10^−7 |  |  |  |  |  |  |  |  |  |  |  |  |  |  |  | MIC90 [5]: 16 µg/mL (≈ 44.3 µM); MIC90 [6]: 8 µg/mL (≈ 22.1 µM); MIC90 (Providencia spp.(all)): > 16 µg/mL; MIC90 (S. marcescens (AmpC)): 4 µg/mL (≈ 11.1 µM); Frequency of Resistance (P. aeruginosa ATCC 27853; 10 X MIC): <1 × 10^−9; MIC90 (E. coli (WT)): 16 µg/mL (≈ 44.3 µM); MIC90 [7]: ≤ 0.5 µg/mL; MIC90 (Klebsiella spp. (WT)): 4 µg/mL (≈ 11.1 µM); MIC90 [8]: 16 µg/mL (≈ 44.3 µM); MIC90 (Klebsiella spp. (ESBL)): > 16 µg/mL; MIC90 (Enterobacteriaceae): 16 µg/mL (≈ 44.3 µM); MIC90 (Klebsiella spp. (KPC)): > 16 µg/mL; MIC90 [9]: ≤ 0.5 µg/mL; MIC90 (Proteus mirabilis (WT)): 8 µg/mL (≈ 22.1 µM); MIC90 (E. coli (ESBL)): > 16 µg/mL; MIC90 [10]: > 16 µg/mL; MIC90 (Proteus vulgaris (WT)): ≤ 5 µg/mL; % susceptible (P. aeruginosa): 63.7%
O=C(O)c1cn(C2CC2)c2cc(N3CCNCC3)c(F)cc2c1=O [Ciprofloxacin] | 2 × 10^−8 | <4 × 10^−9 | 5 × 10^−7 | <5 × 10^−9 | 1 × 10^−8 | did not have any significant difference in MIC values than wild-type | 0.008 µg/mL (≈ 0.0241 µM) | 0.008 µg/mL (≈ 0.0241 µM) | 0.008 µg/mL (≈ 0.0241 µM) | 0.015 µg/mL (≈ 0.0453 µM) | 0.5 µg/mL (≈ 1.51 µM) | 1 µg/mL (≈ 3.02 µM) | 1 µg/mL (≈ 3.02 µM) | 0.5 µg/mL (≈ 1.51 µM) | 0.125 µg/mL (≈ 0.377 µM) | 0.03 µg/mL (≈ 0.0905 µM) | 0.06 µg/mL (≈ 0.181 µM) | 0.06 µg/mL (≈ 0.181 µM) | 0.03 µg/mL (≈ 0.0905 µM) | 0.03 µg/mL (≈ 0.0905 µM) | Frequency of Resistance (P. aeruginosa ATCC 27853; 10 X MIC): <1 × 10^−9
